{
  "source": "paper PMC10039899",
  "about": "“Integrative proteogenomic characterization of early esophageal cancer” (Nature Communications, 2023)",
  "target": "T1, phosphoglycerate kinase 1 (PGK1) (Homo sapiens, UniProt P00558)",
  "T1 construct": "Flag-tagged PGK1, whole-length cDNA, purified from HEK293T cells",
  "T1 sequence (P00558 2-417)": "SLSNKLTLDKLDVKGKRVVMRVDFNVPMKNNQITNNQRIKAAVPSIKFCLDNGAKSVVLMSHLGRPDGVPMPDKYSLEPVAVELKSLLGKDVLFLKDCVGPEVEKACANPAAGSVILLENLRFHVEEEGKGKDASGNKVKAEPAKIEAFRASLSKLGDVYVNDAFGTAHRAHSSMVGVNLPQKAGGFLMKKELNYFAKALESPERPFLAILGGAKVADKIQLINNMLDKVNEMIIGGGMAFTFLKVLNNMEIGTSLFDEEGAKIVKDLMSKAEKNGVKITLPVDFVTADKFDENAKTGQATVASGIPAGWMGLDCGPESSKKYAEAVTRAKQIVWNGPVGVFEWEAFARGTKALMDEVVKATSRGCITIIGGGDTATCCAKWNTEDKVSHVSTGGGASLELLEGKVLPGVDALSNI",
  "test": "in vitro enzymatic assay of purified Flag-PGK1, GAPDH-coupled, NADH decrease at […] nm",
  "type": "biochemical",
  "data": [
    {"smiles": "Nc1ccn([C@@H]2O[C@H](CO)[C@@H](O)C2(F)F)c(=O)n1", "note": "[gemcitabine]", "values": [
      {"measurement": "IC50", "value": 16.3, "unit": "nM"}
    ]}
  ]
}
